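Abbreviation: GI50, concentration required for 50% inhibition of growth. At the TGI there is no net growth.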
Assays:
Assay in all cases: NCI-60 cell line screen, 384-well format
[1] = test system: RPMI-8226 leukemia
[2] = test system: KM12 colon
[3] = test system: HL-60(TB) leukemia
[4] = test system: HT29 colon
[5] = test system: MCF7 breast
[6] = test system: SF-268 CNS
[7] = test system: K-562 leukemia
[8] = test system: SF-295 CNS
[9] = test system: NCI-H322M lung
[10] = test system: SF-539 CNS
[11] = test system: BT-549 breast
[12] = test system: MDA-MB-468 breast
[13] = test system: OVCAR-4 ovarian
[14] = test system: NCI-H522 lung
[15] = test system: HCT-15 colon
[16] = test system: NCI-H460 NSCLC
[17] = test system: M14 melanoma
[18] = test system: MALME-3M melanoma
[19] = test system: SK-MEL-2 melanoma
[20] = test system: MDA-MB-435 melanoma
[21] = test system: CAKI-1 renal
[22] = test system: SNB-75 CNS
[23] = test system: NCI/ADR-RES ovarian
[24] = test system: SK-MEL-5 melanoma
[25] = test system: PC-3 prostate
[26] = test system: HOP-92 NSCLC
[27] = test system: SN12C renal
[28] = test system: 786-0 renal
[29] = test system: HCT-116 colon
[30] = test system: SK-MEL-28 melanoma
[31] = test system: NCI-H23 lung
[32] = test system: HS 578T breast
[33] = test system: A549 NSCLC
[34] = test system: UACC-62 melanoma
[35] = test system: LOX IMVI melanoma
[36] = test system: OVCAR-3 ovarian
[37] = test system: OVCAR-8 ovarian
[38] = test system: SNB-19 CNS
[39] = test system: NCI-H226 lung
[40] = test system: HOP-62 NSCLC
[41] = test system: ACHN renal
[42] = test system: COLO 205 colon
[43] = test system: MOLT-4 leukemia
[44] = test system: UACC-257 melanoma
[45] = test system: RXF 393 renal
[46] = test system: HCC-2998 colon
[47] = test system: EKVX NSCLC
[48] = test system: SK-OV-3 ovarian
[49] = test system: SW-620 colon
[50] = test system: DU-145 prostate
[51] = test system: U251 glioblastoma
[52] = test system: CCRF-CEM leukemia
[53] = test system: IGROV1 ovarian
[54] = test system: TK-10 renal
[55] = test system: A498 renal

## CC1=CC(=O)C=CC1=Nc1ccc(N(C)C)cc1
[1]
  GI50: 1760 nM
  TGI: 3.19 µM
[2]
  GI50: 12.6 µM
  TGI: 25.3 µM
[3]
  GI50: 1330 nM
  TGI: 2620 nM
[4]
  GI50: 14.4 µM
  TGI: 27.7 µM
[5]
  GI50: 3.46 µM
  TGI: 13.3 µM
[6]
  GI50: 16.5 µM
  TGI: 30.1 µM
[7]
  GI50: 12.1 µM
  TGI: 24.5 µM
[8]
  GI50: 15.3 µM
  TGI: 28.7 µM
[9]
  GI50: 17.6 µM
  TGI: 31.5 µM
[10]
  GI50: 10.1 µM
  TGI: 21.7 µM
[11]
  GI50: 6.14 µM
  TGI: 18.6 µM
[12]
  GI50: 361 nM
  TGI: 1340 nM
[13]
  GI50: 2580 nM
  TGI: 12.4 µM
[14]
  GI50: 2210 nM
  TGI: 10.4 µM
[15]
  GI50: 11.4 µM
  TGI: 23.6 µM
[16]
  GI50: 16.4 µM
  TGI: 30.2 µM
[17]
  GI50: 12.5 µM
  TGI: 25 µM
[18]
  GI50: 15.3 µM
  TGI: 28.6 µM
[19]
  GI50: 1770 nM
  TGI: 3.26 µM
[20]
  GI50: 2520 nM
  TGI: 6.2 µM
[21]
  GI50: 8.66 µM
  TGI: 20.8 µM
[22]
  GI50: 17.4 µM
  TGI: 31.2 µM
[23]
  GI50: 6.51 µM
  TGI: 19.2 µM
[24]
  GI50: 6.37 µM
  TGI: 19.9 µM
[25]
  GI50: 3.22 µM
  TGI: 10.4 µM
[26]
  GI50: 2650 nM
  TGI: 6.19 µM
[27]
  GI50: 11.6 µM
  TGI: 23.9 µM
[28]
  GI50: 13 µM
  TGI: 25.7 µM
[29]
  GI50: 2670 nM
  TGI: 8.2 µM
[30]
  GI50: 15.6 µM
  TGI: 29 µM
[31]
  GI50: 4.94 µM
  TGI: 18 µM
[32]
  GI50: 12.3 µM
  TGI: 24.8 µM
[33]
  GI50: 15.3 µM
  TGI: 28.8 µM
[34]
  GI50: 1830 nM
  TGI: 3.92 µM
[35]
  GI50: 11.6 µM
  TGI: 23.9 µM
[36]
  GI50: 1600 nM
  TGI: 3.06 µM
[37]
  GI50: 3.49 µM
  TGI: 9.79 µM
[38]
  GI50: 15.3 µM
  TGI: 28.7 µM
[39]
  GI50: 8.38 µM
  TGI: 20.6 µM
[40]
  GI50: 3.92 µM
  TGI: 9.14 µM
[41]
  GI50: 5.29 µM
  TGI: 18.7 µM
[42]
  GI50: 2920 nM
  TGI: 7.43 µM
[43]
  GI50: 1380 nM
  TGI: 2680 nM
[44]
  GI50: 6.22 µM
  TGI: 18.4 µM
[45]
  GI50: 4.87 µM
  TGI: 16.6 µM
[46]
  GI50: 5.21 µM
  TGI: 20.1 µM
[47]
  GI50: 11.3 µM
  TGI: 23.5 µM
[48]
  GI50: 15.5 µM
  TGI: 29 µM
[49]
  GI50: 13.4 µM
  TGI: 26.4 µM
[50]
  GI50: 14 µM
  TGI: 27 µM
[51]
  GI50: 10.4 µM
  TGI: 22.2 µM
[52]
  GI50: 1430 nM
  TGI: 2770 nM
[53]
  GI50: 12.1 µM
  TGI: 24.5 µM
[54]
  GI50: 10.7 µM
  TGI: 22.6 µM
[55]
  GI50: 11.4 µM
  TGI: 23.6 µM

From PubChem BioAssay (NCI)
